Data published in US20230121689A1, “CEPHALOSPORIN ANTIBACTERIAL COMPOUND AND PHARMACEUTICAL APPLICATION THEREOF” (priority 2020, published 2023).
Values after ≈ are worked out from the molar mass of the structure shown. Read-outs that look alike come from different tables or passages of the source.

Assays:
[1] = test system: Carbapenem-resistant Enterobacteriaceae (CRE); assay: Test Example 1: antibacterial activity test (MIC); assay type: cell-based
Procedure: (§1) The test compounds were diluted in a gradient and used for an MIC assay on the test strains. The test compounds at an initial assay concentration of 32 μg/mL were diluted in a 2-fold gradient (11 concentration points in total), and two duplicate wells were set for each concentration. Additional wells without drug dosing were set as growth controls. The minimum inhibitory concentration (MIC) assay was performed with reference to the Clinical and Laboratory Standards Institute (CLSI) guidelines.
(§2) After the frozen strains were subcultured, a single colony was picked and re-suspended in normal saline or sterile water in a tube. The bacterial suspension was vortexed and adjusted to 0.5 McF using a spectrophotometer at the wavelength of 530 nm. The bacterial solution was taken by a pipette, added to a culture medium, diluted and mixed well, and seeded to a bacterial assay plate.
(§3) The 96-well plate was affixed with a disposable sealing film, shaken and mixed well, and visually observed using a plate reader. The minimum concentration of the compounds capable of inhibiting the growth of bacteria was defined as MIC as compared to the growth controls.

[2] = test system: Carbapenem-resistant Pseudomonas aeruginosa (CRPA); assay: Test Example 1: antibacterial activity test (MIC); assay type: cell-based
Procedure: as §1, §2, §3

[3] = test system: Carbapenem-resistant Acinetobacter baumannii (CRAB); assay: Test Example 1: antibacterial activity test (MIC); assay type: cell-based
Procedure: as §1, §2, §3

[4] = test system: Carbapenem-resistant Enterobacteriaceae (CRE, Klebsiella pneumoniae); assay: Test Example 2: antibacterial activity test (MIC); assay type: cell-based; conditions: ID-CAMHB, read-out: ID-CAMHB, MIC
Summary of the method: (§4)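 MIC by CLSI broth microdilution: compounds serially 2-fold diluted in sterile saline, 32–0.031 μg/mL (11 points, duplicate wells), added to bacterial suspension at 2-8×10^5 CFU/mL, with drug-free growth controls.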

[5] = test system: Control strain Escherichia coli ATCC 25922; assay: Test Example 2: antibacterial activity test (MIC); assay type: cell-based; conditions: ATCC25922, ID-CAMHB, ATCC 25922, read-out: ID-CAMHB, MIC
Summary of the method: as §4

[6] = test system: Carbapenem-resistant Acinetobacter baumannii (CRAB, Acinetobacter baumannii); assay: Test Example 2: antibacterial activity test (MIC); assay type: cell-based; conditions: ID-CAMHB, read-out: ID-CAMHB, MIC
Summary of the method: as §4

[7] = test system: Carbapenem-resistant Pseudomonas aeruginosa (CRPA, Pseudomonas aeruginosa); assay: Test Example 2: antibacterial activity test (MIC); assay type: cell-based; conditions: ID-CAMHB, read-out: ID-CAMHB, MIC
Summary of the method: as §4

[8] = test system: Control Strain Pseudomonas aeruginosa ATCC 27853; assay: Test Example 2: antibacterial activity test (MIC); assay type: cell-based; conditions: ATCC27853, ID-CAMHB, ATCC 27853, read-out: ID-CAMHB, MIC
Summary of the method: as §4

[9] = Test Example 3: pharmacokinetic study in cynomolgus monkeys; assay type: in vivo; conditions: cynomolgus monkey, plasma, 10 mg/kg single intravenous infusion, individual animals
Procedure: An appropriate amount of a test compound was weighed precisely and added to a container, and 0.9% sodium chloride injection and 0.2 M NaOH solution were added thereto in an ice bath until the test compound was completely dissolved, so that a sample solution at a concentration of 2 mg/mL was obtained followed by storage at 2-8° C. for later use.
Species and strain: cynomolgus monkey Animal grade: general grade Animal source: Guangxi Xiongsen Primate Experimental Animal Breeding Development Co., Ltd. Number of the using of laboratory animal: SYXK (Su) 2019-0012
6 cynomolgus monkeys (half male and half female) were selected and randomly divided into 3 groups with 1 animal/sex in each group. The cynomolgus monkeys were administered with the test sample at a dose of 10 mg/kg by the single intravenous infusion. Blood samples were collected from each group of animals at the following time points: before administration, and 5 min, 15 min, 0.5 h, 1 h, 2 h, 4 h, 6 h, and 8 h after administration. In the test, the concentration of each test compound in the plasma of the cynomolgus monkey was detected by the LC-MS/MS method, and the lower limit of quantification of the analysis methods for the plasma samples were all 1 μg/mL. The plasma concentration data were analyzed by the non-compartmental analysis (NCA) of the analysis software for pharmacokinetic data, WinNonlin, pharmacokinetic parameters were calculated, and pharmacokinetic characteristics of the test compounds in cynomolgus monkeys after administration were investigated, with the results shown in the following table

[10] = both sexes, cynomolgus, iv, 10 mg/kg

CC(C)(O/N=C(\C(=O)N[C@@H]1C(=O)N2C(C(=O)[O-])=C(C[N+]3(CCNC(=O)c4ccc(O)c(O)c4Cl)CCCC3)CS[C@H]12)c1csc(N)n1)C(=O)O [Cefiderocol, reference compound]
MIC ([1]; CRE strain No. 100109): 1 µg/mL (≈ 1.33 µM) | MIC ([1]; CRE strain No. 100186): 0.5 µg/mL (≈ 0.665 µM) | MIC ([1]; CRE strain No. 110502): 12 µg/mL (≈ 16 µM) | MIC ([1]; CRE strain No. 110525): 6 µg/mL (≈ 7.98 µM) | MIC ([1]; CRE strain No. 311277): 5 µg/mL (≈ 6.65 µM) | MIC ([2]; CRPA strain No. 100110): 0.047 µg/mL (≈ 0.0625 µM) | MIC ([2]; CRPA strain No. 110163): 1 µg/mL (≈ 1.33 µM) | MIC ([2]; CRPA strain No. 110224): 0.75 µg/mL (≈ 0.997 µM) | MIC ([2]; CRPA strain No. 110358): 1 µg/mL (≈ 1.33 µM) | MIC ([2]; CRPA strain No. 110390): 0.5 µg/mL (≈ 0.665 µM) | MIC ([3]; CRAB strain No. 100085): 0.5 µg/mL (≈ 0.665 µM) | MIC ([3]; CRAB strain No. 100333): 2 µg/mL (≈ 2.66 µM) | MIC ([3]; CRAB strain No. 110440): 1.5 µg/mL (≈ 1.99 µM) | MIC ([3]; CRAB strain No. 110477): 1 µg/mL (≈ 1.33 µM) | MIC ([3]; CRAB strain No. 110517): 0.5 µg/mL (≈ 0.665 µM) | MIC ([4]; FDA-CDC AR-BANK #0361 (TEM-1; SHV-12; KPC-2)): 2 µg/mL (≈ 2.66 µM) | MIC ([4]; FDA-CDC AR-BANK #0362 (TEM-1; SHV-11; KPC-2)): 0.5 µg/mL (≈ 0.665 µM) | MIC ([4]; FDA-CDC AR-BANK #0363 (TEM-1; SHV-12; KPC-2)): 0.25 µg/mL (≈ 0.332 µM) | MIC ([4]; FDA-CDC AR-BANK #0438 (aph(3′)-Ia, dfrA12, KPC-3, OmpK35, oqxA, oqxB, SHV-11)): 2 µg/mL (≈ 2.66 µM) | MIC ([4]; FDA-CDC AR-BANK #0453 (KPC-3, OmpK35, oqxA, oqxB, SHV-11, TEM-1B)): 1 µg/mL (≈ 1.33 µM) | MIC [5]: 0.0625 µg/mL (≈ 0.0831 µM) | MIC ([6]; FDA-CDC AR-BANK #0036 (strB, OXA-65, OXA-24, strA, sul2)): 0.25 µg/mL (≈ 0.332 µM) | MIC ([6]; FDA-CDC AR-BANK #0052 (OXA-58, OXA-100, sul2)): 0.0625 µg/mL (≈ 0.0831 µM) | MIC ([6]; FDA-CDC AR-BANK #0063 (OXA-23, OXA-65, OXA-24, sul2)): 8 µg/mL (≈ 10.6 µM) | MIC ([6]; FDA-CDC AR-BANK #0070 (OXA-58, OXA-100, sul2)): 0.125 µg/mL (≈ 0.166 µM) | MIC ([6]; FDA-CDC AR-BANK #0101 (strB, OXA-65, OXA-24, strA, sul2)): 1 µg/mL (≈ 1.33 µM) | MIC ([7]; FDA-CDC AR-BANK #0439 (aac(6′)-Il, aadA1b, BCR1, IMP-18, OXA-50)): 0.25 µg/mL (≈ 0.332 µM) | MIC ([7]; FDA-CDC AR-BANK #0441 (KPC-2)): 1 µg/mL (≈ 1.33 µM) | MIC ([7]; FDA-CDC AR-BANK #0444 (aac(6′)-Il, dfrB5, OXA-4, tet(G), VIM-2)): 2 µg/mL (≈ 2.66 µM) | MIC ([7]; FDA-CDC AR-BANK #0457 (aadA6, VIM-2)): 0.125 µg/mL (≈ 0.166 µM) | MIC [8]: 0.0625 µg/mL (≈ 0.0831 µM) | AUC(0-inf) [9, 10]: 32400 ng·h/mL | AUC(0-t) [9, 10]: 26200 ng·h/mL | clearance [9, 10]: 5.14 mL/min/kg | half-life [9, 10]: 51.6 min | Cmax ([9]; both sexes, cynomolgus, iv, 10 mg/kg, read-out: Cmax): 30500 ng/mL | MRT ([9]; both sexes, cynomolgus, iv, 10 mg/kg, read-out: MRT): 42 min | Vd ([9]; both sexes, cynomolgus, iv, 10 mg/kg, read-out: Vd): 0.381 L/kg | Tmax ([9]; both sexes): 4.8 min | AUC last ([9]; 10 mg/kg): 23940 ng·h/mL | AUCinf ([9]; 10 mg/kg): 28350 ng·h/mL | CL ([9]; 10 mg/kg): 5.8793 mL/min/kg | Cmax ([9]; 10 mg/kg): 24330 ng/mL | Vd ([9]; 10 mg/kg): 0.37963 L/kg | t1/2 ([9]; 10 mg/kg): 45 min
